Source: patent US8268862B2, “Sirtuin modulating compounds” (Sirtris Pharmaceuticals, Inc., priority 2007, dated 2012)

Molecular target: T1, SIRT1 (Homo sapiens, UniProt Q96EB6)
T1 sequence (Q96EB6 1-747): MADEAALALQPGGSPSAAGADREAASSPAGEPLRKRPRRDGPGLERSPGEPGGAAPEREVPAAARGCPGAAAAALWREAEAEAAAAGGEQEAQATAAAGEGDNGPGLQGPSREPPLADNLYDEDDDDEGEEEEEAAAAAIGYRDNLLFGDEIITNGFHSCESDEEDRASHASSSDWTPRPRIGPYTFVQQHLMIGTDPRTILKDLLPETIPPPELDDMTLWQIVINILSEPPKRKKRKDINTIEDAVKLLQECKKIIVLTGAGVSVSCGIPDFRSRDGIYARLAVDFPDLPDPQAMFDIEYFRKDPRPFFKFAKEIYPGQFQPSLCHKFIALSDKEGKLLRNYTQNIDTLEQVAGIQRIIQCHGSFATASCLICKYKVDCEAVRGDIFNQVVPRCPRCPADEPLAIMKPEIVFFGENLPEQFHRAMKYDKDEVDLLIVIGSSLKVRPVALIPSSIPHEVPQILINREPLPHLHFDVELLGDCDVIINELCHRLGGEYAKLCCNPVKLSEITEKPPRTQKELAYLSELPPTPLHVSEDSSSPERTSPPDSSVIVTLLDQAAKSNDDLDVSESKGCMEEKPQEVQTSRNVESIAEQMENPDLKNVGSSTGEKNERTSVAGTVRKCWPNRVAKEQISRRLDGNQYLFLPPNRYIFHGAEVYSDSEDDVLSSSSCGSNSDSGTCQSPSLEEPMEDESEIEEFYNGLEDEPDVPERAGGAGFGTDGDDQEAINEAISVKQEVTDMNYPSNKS
Assay: mass spectrometry based SIRT1 deacetylation assay (activation)
Type: biochemical
Conditions: 0.5 μM peptide substrate, 120 μM βNAD+, 10 nM SIRT1, 25 min at 25° C.; for EC1.5 (concentration of test compound that results in 150% activation of SIRT1): NA = not active in the assay; for Emax: read-out: % FOLD ACT. (percent maximum fold activation of SIRT1)
Source text: A mass spectrometry based assay was used to identify modulators of SIRT1 activity. The mass spectrometry based assay utilizes a peptide having 20 amino acid residues as follows: Ac-EE-K(biotin)-GQSTSSHSK(Ac)NleSTEG-K(5TMR)-EE-NH2 (SEQ ID NO: 1) wherein K(Ac) is an acetylated lysine residue and Nle is a norleucine. The peptide is labeled with the fluorophore 5TMR (excitation 540 nm/emission 580 nm) at the C-terminus. The sequence of the peptide substrate is based on p53 with several modifications. In addition, the methionine residue naturally present in the sequence was replaced with the norleucine because the methionine may be susceptible to oxidation during synthesis and purification.
Test compounds may be added to the reaction as described above. […] After the 25 minute incubation with SIRT1, 10 μL of 10% formic acid is added to stop the reaction. Reactions are sealed and frozen for later mass spec analysis. Determination of the mass of the substrate peptide allows for precise determination of the degree of acetylation (i.e. starting material) as compared to deacetylated peptide (product).
A control for inhibition of sirtuin activity is conducted by adding 1 μL of 500 mM nicotinamide as a negative control at the start of the reaction (e.g., permits determination of maximum sirtuin inhibition). A control for activation of sirtuin activity is conducted using 10 nM of sirtuin protein, with 1 μL of DMSO in place of compound, to determine the amount of deacetylation of the substrate at a given timepoint within the linear range of the assay. This timepoint is the same as that used for test compounds and, within the linear range, the endpoint represents a change in velocity.
For the above assay, SIRT1 protein was expressed and purified as follows. […] The protein was expressed by induction with 1 mM IPTG as an N-terminal His-tag fusion protein at 18° C. overnight and harvested at 30,000×g. Cells were lysed with lysozyme in lysis buffer (50 mM Tris-HCl, 2 mM Tris[2-carboxyethyl]phosphine (TCEP), 10 μM ZnCl2, 200 mM NaCl) and further treated with sonication for 10 min for complete lysis. The protein was purified over a Ni-NTA column (Amersham) and fractions containing pure protein were pooled, concentrated and run over a sizing column (Sephadex S200 26/60 global). The peak containing soluble protein was collected and run on an Ion-exchange column (MonoQ). Gradient elution (200 mM-500 mM NaCl) yielded pure protein. This protein was concentrated and dialyzed against dialysis buffer (20 mM Tris-HCl, 2 mM TCEP) overnight. The protein was aliquoted and frozen at −80° C. until further use.
Sirtuin modulating compounds that activated SIRT1 were identified using the assay described above and are shown below in Table 3. The EC1.5 values represent the concentration of test compounds that result in 150% activation of SIRT1. NT means that the compound was not tested using the indicated assay. NA means that the compound was not active in the indicated assay.

| SMILES | EC1.5 (concentration of test compound that results in 150% activation of SIRT1) [NM] | Emax [%] |
| --- | --- | --- |
| COCCN1CCN(Cc2cnc3sc(-c4ccccc4NC(=O)c4cccc(-c5ccc(F)cc5)n4)nc3c2)CC1 [Compound 141] | 127 | 487 |
| O=C(Nc1ccccc1-c1nc2cc(CN3CCNCC3)cnc2s1)c1cn2cc(F)ccc2n1 [Compound 124] | 1060 | 314 |
| O=C(Nc1ccccc1-c1nc2cc(CN3CC[C@@H](F)C3)cnc2s1)c1cccc(-n2cnnn2)c1 [Compound 84] | 4270 | 166 |
| O=C(Nc1ccccc1-c1nc2cc(CN3CCNCC3)cnc2s1)c1cccc(-c2ccccn2)c1 [Compound 8] | 340 | 471 |
| Cc1nc(-c2cccnc2)sc1C(=O)Nc1ccccc1-c1nc2cc(CN3CCOCC3)cnc2s1 [Compound 80] |  | 100 |
| COc1cc(C(=O)Nc2ccccc2-c2nc3cc(CN4CCOCC4)cnc3s2)nc2ccccc12 [Compound 105] | 1590 | 292 |
| CC(C)NCc1cnc2sc(-c3ccccc3NC(=O)c3cccc(-c4ccccn4)c3)nc2c1 [Compound 14] | 937 | 381 |
| COCCN1CCN(Cc2cnc3sc(-c4ccccc4NC(=O)c4cc(-c5ccccc5)cn4C)nc3c2)CC1 [Compound 88] | 14 | 272 |
| O=C(Nc1ccccc1-c1nc2cc(CN3CCOCC3)cnc2s1)c1cccc(-n2cccn2)c1 [Compound 40] | 182 | 397 |
| O=C(Nc1ccccc1-c1nc2cc(CN3CCOCC3)cnc2s1)c1cccc(-c2nnn[nH]2)c1 [Compound 77] | 3920 | 204 |
| O=C(Nc1ccccc1-c1nc2cc(CN3CCOCC3)cnc2s1)c1cn2cccnc2n1 [Compound 112] | 2330 | 375 |
| O=C(Nc1ccccc1-c1nc2cc(CN3CCNCC3)cnc2s1)c1cccc(-c2nnn[nH]2)c1 [Compound 76] | 2790 | 285 |
| O=C(Nc1ccccc1-c1nc2cc(CN3CCCC3)cnc2s1)c1cccc(-c2ccccc2)c1 [Compound 13] | 584 | 252 |
| COCCN1CCN(Cc2cnc3sc(-c4ccccc4NC(=O)c4cccc(-c5cccnc5)c4)nc3c2)CC1 [Compound 58] | 884 | 370 |
| O=C(Nc1ccccc1-c1nc2cc(CN3CCNCC3)cnc2s1)c1cn2ccccc2n1 [Compound 123] | 1940 | 400 |
| O=C(Nc1ccccc1-c1nc2cc(CN3CCOCC3)cnc2s1)c1cc(-c2ccccc2)n[nH]1 [Compound 3] | 1620 | 246 |
| O=C(Nc1ccccc1-c1nc2cc(CN3CC[C@@H](F)C3)cnc2s1)c1cccc(-c2ccccn2)c1 [Compound 26] | 455 | 192 |
| O=C(Nc1ccccc1-c1nc2cc(CN3CCNCC3)cnc2s1)c1ccc2ncsc2c1 [Compound 70] |  | 298 |
| Cn1cc(-c2ccccc2)cc1C(=O)Nc1ccccc1-c1nc2cc(CN3CCCC3)cnc2s1 [Compound 151] | 591 | 170 |

| SMILES | EC1.5 (concentration of test compound that results in 150% activation of SIRT1) [NM] | Emax [%] |
| --- | --- | --- |
| O=C(Nc1ccccc1-c1nc2cc(CN3CCNCC3)cnc2s1)c1ccc2ccccc2n1 [Compound 64] | 260 | > 500 |
| CC(C)NCc1cnc2sc(-c3ccccc3NC(=O)c3cncc(-c4ccccc4)c3)nc2c1 [Compound 28] | 3590 | 162 |
| COCCN1CCN(Cc2cnc3sc(-c4ccccc4NC(=O)c4cc(-c5ccccc5)n[nH]4)nc3c2)CC1 [Compound 152] | 321 | > 500 |
| O=C(Nc1ccccc1-c1nc2cc(CN3CCCC3)cnc2s1)c1ccn(-c2ccccc2)n1 [Compound 154] | 428 | 277 |
| O=C(Nc1ccccc1-c1nc2cc(CN3CCC(F)(F)C3)cnc2s1)c1ccc2ccccc2n1 [Compound 101] |  | 133 |
| O=C(Nc1ccccc1-c1nc2cc(CN3CCOCC3)cnc2s1)c1cccc2ccccc12 [Compound 97] | 3020 | 186 |
| Cc1cc(C(=O)Nc2ccccc2-c2nc3cc(CN4CCOCC4)cnc3s2)nc(-c2ccccc2)n1 [Compound 132] | 215 | 500 |
| O=C(Nc1ccccc1-c1nc2cc(CN3CCOCC3)cnc2s1)c1nc2ccccc2s1 [Compound 93] | 510 | 236 |
| O=C(Nc1ccccc1-c1nc2cc(CN3CC[C@@H](F)C3)cnc2s1)c1cccc(-c2cccnc2)c1 [Compound 27] | 913 | 185 |
| O=C(Nc1ccccc1-c1nc2cc(CN3CCNCC3)cnc2s1)c1ccn(-c2ccccc2)n1 [Compound 71] | 1460 | 304 |
| NC1CCN(Cc2cnc3sc(-c4ccccc4NC(=O)c4cccc(-c5ccncc5)c4)nc3c2)CC1 [Compound 12] | 249 | 550 |
| CN1CCN(Cc2cnc3sc(-c4ccccc4NC(=O)c4ccc5ccccc5n4)nc3c2)CC1 [Compound 90] | 190 | 221 |
| O=C(Nc1ccccc1-c1nc2cc(CN3CC[C@H](O)C3)cnc2s1)c1ccc2ccccc2n1 [Compound 110] | 230 | 307 |
| O=C(Nc1ccccc1-c1nc2cc(CN3CCOCC3)cnc2s1)c1cn2cc(F)ccc2n1 [Compound 128] | 1310 | 227 |
| O=C(Nc1ccccc1-c1nc2cc(CN3CCOCC3)cnc2s1)c1cccc(-c2ccccc2)c1 [Compound 1] | 233 | 241 |
| CC(C)NCc1cnc2sc(-c3ccccc3NC(=O)c3cccc(-c4cccnc4)c3)nc2c1 [Compound 23] | 1950 | 241 |
| O=C(Nc1ccccc1-c1nc2cc(CN3CCOCC3)cnc2s1)c1cccc(-c2cccc(F)c2)n1 [Compound 53] | 66 | 837 |
| O=C(Nc1ccccc1-c1nc2cc(CN3CCNCC3)cnc2s1)c1cccc(-c2cccnc2)c1 [Compound 9] | 416 | 392 |
